# Columns and labels:
# Assay type in all cases: physicochemical
# [1] = decomposition of rocuronium bromide in water at room temperature; settings: aqueous solution, in 24 hours
# Text: While freeze drying of the aqueous solution did reduce the isobutyl acetate level to an acceptable level of 0.26%, the impurity levels rose to 0.33%. […] This inherent instability in aqueous solution may explain thc observed rise in the impurities level in our hands.
# [2] = hygroscopicity test at relative humidity of about 45%; settings: within 24 hours, sample containing 3.1% acetic acid (stabilized solid of the invention)
# Method: In another aspect, the present invention relates to an improved process for preparing a stable solid comprising substantially pure rocuronium bromide, which is substantially non-hygroscopic, because when subjected to hygroscopisity test at relative humidity of about 45%, a sample containing 3.1% acetic acid absorbed only about 2% water within 24 hours.
# [3] = nature of product freeze dried from unbuffered degassed water (Example 5); settings: Example 5: dissolved in degassed water and freeze dried, no buffer
# Method: Rocuronium bromide (2 grams) prepared according to example 1 and dried in a manner similar to entries 1 and 2 in table 2 (see example 4), was dissolved in degassed water (30 ml) and freeze dried.
structure (smiles),measurement,setting,value
"C=CC[N+]1(C2CC3C4CC[C@H]5C[C@H](O)C(N6CCOCC6)C[C@]5(C)C4CC[C@]3(C)[C@H]2OC(C)=O)CCCC1.[Br-] (stereo partly drawn) [rocuronium bromide, 1-[(2β,3α,5α,16β,17β)-17-acetoxy-3-hydroxy-2-(4-morpholinyl)-androstan-16-yl-]-1-(2-propenyl)pyrrolidinium bromide]",decomposition rate in water,[1],0.25-0.5%
same,water absorbed,[2],about 2%
same,hygroscopicity of product,[3],highly hygroscopic
